Test results reported in the supplement of paper PMC11562712.

Test: first-order primary biodegradation rate constant k (sorption-corrected, fDis-corrected) (d-1); higher = faster biodegradation
Procedure: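 Modified OECD 309 water-sediment test. River water plus sieved sediment (50 g wet solid/L) from European river segments (DE, CH, ES, EL) was spiked with a mixture of 129 compounds at 1 ug/L each and incubated in the dark at river temperature for 10 days. The water phase was analysed by UHPLC-Orbitrap-MS. The first-order primary biodegradation rate constant k (d-1) is k_observed, corrected for dissipation in sterile sorption controls and divided by the dissolved fraction fDis; it was fitted over 3 replicate incubations. Invalid fits (p > 0.05, n < 5, not available, concentration increase) are excluded.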

[1] = river segment: Germany (DE) H_Contam, incubation temperature 24 °C
[2] = river segment: Germany (DE) T_Contam, incubation temperature 24 °C
[3] = river segment: Germany (DE) T_Pris, incubation temperature 24 °C
[4] = river segment: Greece (EL) A_Contam, incubation temperature 19 °C
[5] = river segment: Greece (EL) G_Pris, incubation temperature 19 °C
[6] = river segment: Greece (EL) L_Contam, incubation temperature 19 °C
[7] = river segment: Spain (ES) B_Contam, incubation temperature 24 °C
[8] = river segment: Spain (ES) C_Contam, incubation temperature 24 °C
[9] = river segment: Spain (ES) F_Pris_Salt, incubation temperature 24 °C
[10] = river segment: Spain (ES) L_Contam, incubation temperature 24 °C
[11] = river segment: Switzerland (CH) C_Contam, incubation temperature 17 °C
[12] = river segment: Switzerland (CH) R_Contam, incubation temperature 17 °C
[13] = river segment: Switzerland (CH) U_Contam, incubation temperature 17 °C
[14] = river segment: Switzerland (CH) U_Pris, incubation temperature 17 °C
[15] = river segment: Greece (EL) G_Contam, incubation temperature 19 °C

Row | SMILES | first-order primary biodegradation rate constant k [1] | first-order primary biodegradation rate constant k [2] | first-order primary biodegradation rate constant k [3] | first-order primary biodegradation rate constant k [4] | first-order primary biodegradation rate constant k [5] | first-order primary biodegradation rate constant k [6] | first-order primary biodegradation rate constant k [7] | first-order primary biodegradation rate constant k [8] | first-order primary biodegradation rate constant k [9] | first-order primary biodegradation rate constant k [10] | first-order primary biodegradation rate constant k [11] | first-order primary biodegradation rate constant k [12] | first-order primary biodegradation rate constant k [13] | first-order primary biodegradation rate constant k [14] | first-order primary biodegradation rate constant k [15]
1 | CN(C)C(=O)Nc1ccc(Cl)c(Cl)c1 [Diuron] | 0.127 | 0.147 | 0.044 | 0.283 | 0.286 | 0.166 | – | – | – | 0.0944 | – | – | 0.0756 | 0.0899 | 0.119
2 | CN(C)C(=N)NC(=N)N [Metformin] | 0.0281 | 0.0415 | 0.0208 | – | – | – | – | – | – | – | – | – | – | – | –
3 | CCCCCCCCCCN [Decylamine] | 11.8 | 54.6 | 5.65 | 68.6 | 29.1 | – | – | 43.8 | 12.1 | – | 0.758 | 11.7 | – | – | 17.4
4 | CCCCCCCCCCCCN [Dodecylamine] | – | – | – | – | – | – | – | – | – | – | – | – | – | – | 7.74
5 | CC1(C)C[C@@H]1C(=O)N/C(=C\CCCCSC[C@H](N)C(=O)O)C(=O)O [Cilastatin] | 5.75 | 5.89 | 4.29 | 7.64 | 22 | 5.07 | 10.1 | 7.57 | 8.78 | 12.5 | 7.85 | 7.32 | 7.54 | 10.7 | 5.93
6 | Cc1ccc(NC(=O)N(C)C)cc1Cl [Chlortoluron] | 0.0585 | 0.156 | 0.00289 | 0.306 | 0.423 | 0.139 | 0.0189 | – | – | 0.114 | – | – | 0.0378 | 0.0569 | 0.0396
7 | O=C1Nc2ccc(Cl)cc2C(c2ccccc2)=NC1O (configuration not stated) [Oxazepam] | 0.0405 | 0.0412 | – | – | – | 0.027 | – | 0.124 | – | 0.0149 | – | – | 0.0242 | 0.00813 | –

Further lines, results first:

Row | first-order primary biodegradation rate constant k [1] | first-order primary biodegradation rate constant k [2] | first-order primary biodegradation rate constant k [3] | first-order primary biodegradation rate constant k [4] | first-order primary biodegradation rate constant k [5] | first-order primary biodegradation rate constant k [6] | first-order primary biodegradation rate constant k [7] | first-order primary biodegradation rate constant k [8] | first-order primary biodegradation rate constant k [9] | first-order primary biodegradation rate constant k [10] | first-order primary biodegradation rate constant k [11] | first-order primary biodegradation rate constant k [12] | first-order primary biodegradation rate constant k [13] | first-order primary biodegradation rate constant k [14] | first-order primary biodegradation rate constant k [15] | SMILES
8 | 0.417 | 0.319 | 0.123 | 0.323 | 0.781 | 0.343 | 0.157 | 0.105 | 0.0258 | 0.299 | 0.06 | 0.149 | 0.294 | 0.358 | – | CCCCc1nc(Cl)c(CO)n1Cc1ccc(-c2ccccc2-c2nnn[nH]2)cc1 [Losartan]
9 | 0.0409 | 0.0507 | 0.00553 | 0.316 | 0.0923 | 2.87 | 0.0121 | 0.00219 | – | 0.208 | – | 0.00612 | 0.0122 | 0.0264 | – | c1ccc2[nH]nnc2c1 [Benzotriazole]
10 | 0.469 | 0.54 | 0.204 | 0.42 | 0.275 | – | – | 0.194 | 0.0324 | 0.374 | 0.186 | 0.52 | 0.556 | 0.429 | 0.418 | CCCCC(=O)N(Cc1ccc(-c2ccccc2-c2nnn[nH]2)cc1)[C@H](C(=O)O)C(C)C [Valsartan]
11 | 0.0111 | 0.266 | 0.0301 | 0.501 | 0.106 | – | 0.0427 | – | – | 0.00307 | 0.0234 | – | 0.00879 | 0.0314 | 0.129 | CCN1CCCC1CNC(=O)c1cc(S(=O)(=O)CC)c(N)cc1OC (configuration not stated) [Amisulpride]
12 | 0.0105 | 0.00344 | – | 0.0177 | 0.00116 | 0.0298 | 0.0307 | 0.287 | – | 0.118 | 0.00975 | 0.00379 | 0.0121 | 0.0138 | – | CCN(CC)CC(=O)Nc1c(C)cccc1C [Lidocaine]
13 | 0.0829 | 0.171 | 0.0275 | 0.168 | 0.0968 | 0.114 | 0.359 | 0.149 | 0.0149 | 0.229 | 0.0405 | 0.336 | 0.155 | 0.0826 | – | NS(=O)(=O)c1cc(C(=O)O)c(NCc2ccco2)cc1Cl [Furosemide]
14 | 0.299 | 0.901 | 0.3 | 0.39 | 0.147 | 0.665 | 2.88 | – | 0.0637 | 0.568 | 0.114 | 0.395 | 0.508 | 0.447 | 0.342 | CC(C)NCC(O)COc1ccc(CC(N)=O)cc1 (configuration not stated) [Atenolol]
